In experiment [1] the test system is JAK2-dependent nuclear translocation of STAT5-GFP in U-2 OS osteosarcoma cells. Description: STAT5 nuclear translocation assay (Cellomics), rhEpo stimulated U-2 OS STAT5-GFP cells. The experiment is classed as cell-based. The following applies: Homo sapiens, U2OS; STAT5 translocation pathway. The essentials: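 U-2 OS cells stably expressing STAT5a-GFP and EpoR pre-treated with compound (final 10 μM to 0.003 μM, 0.1% DMSO) for 30 min at 37° C., then stimulated 1 h with 5 U/ml rhEpo. Nuclear-cytoplasmic GFP differential quantified by automated imaging (≥1000 cells/well, Hoechst nuclear mask). IC50 from % translocation normalized to untreated and DMSO-stimulated controls.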

The target in experiment [2] is T1, GST-JAK2(808-1132) (Homo sapiens, UniProt O60674).
T1 construct: GST-JAK2(808-1132); purchased Invitrogen (Carlsbad, USA) #4288
Description: JAK2 kinase assay (Caliper mobility shift, LabChip 3000). The experiment is classed as biochemical. An outline of the steps:
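Eight-point compound series (final 10–0.003 μM) tested on purchased GST-JAK2 kinase domain (808-1132). Peptide FITC-JAK3tide plus ATP reacted 60 min, 30 °C, then quenched with EDTA; turnover from charge-based separation of substrate and product.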

Some results are limits rather than exact numbers.

Usually IC50 stands for the midpoint of a concentration-inhibition curve.

T1 sequence (O60674 808-1132): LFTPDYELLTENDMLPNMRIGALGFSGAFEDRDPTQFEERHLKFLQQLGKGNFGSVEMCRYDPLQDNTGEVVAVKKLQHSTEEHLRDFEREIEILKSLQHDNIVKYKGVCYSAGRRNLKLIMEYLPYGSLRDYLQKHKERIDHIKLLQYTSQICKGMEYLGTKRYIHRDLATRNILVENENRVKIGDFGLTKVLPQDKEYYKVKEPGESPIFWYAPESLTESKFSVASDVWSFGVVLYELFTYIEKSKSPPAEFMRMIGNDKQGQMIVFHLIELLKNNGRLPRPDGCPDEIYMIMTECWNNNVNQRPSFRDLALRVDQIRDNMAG

Consider `CN1CCN(c2cc(Nc3ncc4ccn(-c5cc(F)c(CN6CCOCC6)c(F)c5)c4n3)ccn2)CC1=O` [Example 504, 4-{4-[7-(3,5-Difluoro-4-morpholin-4-ylmethyl-phenyl)-7H-pyrrolo[2,3-d]pyrimidin-2-ylamino]-pyridin-2-yl}-1-methyl-piperazin-2-one], for which the 50% inhibitory concentration (IC50) is 0.0815 µM in experiment [1] and at most 0.003 µM in experiment [2].

Regarding `Fc1cc(-n2ccc3cnc(Nc4ccc5c(c4)NCC5)nc32)cc(F)c1CN1CCOCC1` [Example 431, [7-(3,5-Difluoro-4-morpholin-4-ylmethyl-phenyl)-7H-pyrrolo[2,3-d]pyrimidin-2-yl]-(2,3-dihydro-1H-indol-6-yl)-amine], the IC50 in experiment [1] stood at 0.0235 µM; in experiment [2], 0.0032 µM.

As for `C[C@@H]1CN(Cc2c(F)cc(-n3ccc4cnc(Nc5ccc(N6CCNCC6)nc5)nc43)cc2F)C[C@H](C)O1` [Example 454, {7-[4-(cis-2,6-dimethyl-morpholin-4-ylmethyl)-3,5-difluoro-phenyl]-7H-pyrrolo[2,3-d]pyrimidin-2-yl}-(6-piperazin-1-yl-pyridin-3-yl)-amine], the results for the IC50 in experiment [1] and in experiment [2] were 0.0535 µM and 0.0045 µM, respectively.

As for `Cc1cc(Nc2ncc3ccn(-c4cc(F)c(CN5CCOCC5)c(F)c4)c3n2)cnc1N1CCNCC1` [Example 487, [7-(3,5-Difluoro-4-morpholin-4-ylmethyl-phenyl)-7H-pyrrolo[2,3-d]pyrimidin-2-yl]-(5-methyl-6-piperazin-1-yl-pyridin-3-yl)-amine], the IC50 is 0.0058 µM in experiment [1] and at most 0.003 µM in experiment [2].

Turning to `CN1CCN(Cc2ccc(Nc3ncc4ccn(-c5cc(F)c(CN6CCOCC6)c(F)c5)c4n3)cn2)CC1` [Example 472, [7-(3,5-Difluoro-4-morpholin-4-yl methyl-phenyl)-7H-pyrrolo[2,3-d]pyrimidin-2-yl]-[6-(4-methyl-piperazin-1-ylmethyl)-pyridin-3-yl]-amine], the results for the concentration for half-maximal inhibition (IC50) in experiment [1] and in experiment [2] were 0.092 µM and 0.0036 µM, respectively.

Regarding `COC1CCN(Cc2ccc(Nc3ncc4ccn(-c5cc(F)c(CN6CCOCC6)c(F)c5)c4n3)cc2)C1` (racemic) [Example 506, [7-(3,5-Difluoro-4-morpholin-4-ylmethyl-phenyl)-7H-pyrrolo[2,3-d]pyrimidin-2-yl]-[4-(3-methoxy-pyrrolidin-1-ylmethyl)-phenyl]-amine], the IC50 was 0.038 µM in experiment [1] and at most 0.003 µM in experiment [2].

For the compound `Cc1cc(Nc2ncc3ccn(-c4cc(F)c(CN5CCS(=O)(=O)CC5)c(F)c4)c3n2)cnc1N1C[C@@H](C)N[C@@H](C)C1` [Example 429], the figures for the 50% inhibitory concentration (IC50) in experiment [1] and in experiment [2] were 0.041 µM and at most 0.003 µM, respectively.

`Cc1ccc(Nc2ncc3ccn(-c4cc(F)c(CN5CCOCC5)c(F)c4)c3n2)cc1CN1CCNC(C)(C)C1` [Example 385, [7-(3,5-Difluoro-4-morpholin-4-ylmethyl-phenyl)-7H-pyrrolo[2,3-d]pyrimidin-2-yl]-[3-(3,3-dimethyl-piperazin-1-ylmethyl)-4-methyl-phenyl]-amine]: the half-maximal inhibitory concentration (IC50) in experiment [1] was 0.0655 µM; in experiment [2] it was at most 0.003 µM.

As for `OCCOc1ccc(Nc2ncc3ccn(-c4cc(F)c(CN5CCOCC5)c(F)c4)c3n2)cn1` [Example 518, 2-{5-[7-(3,5-Difluoro-4-morpholin-4-ylmethyl-phenyl)-7H-pyrrolo[2,3-d]pyrimidin-2-ylamino]-pyridin-2-yloxy}-ethanol], the IC50 is 0.0395 µM in experiment [1] and at most 0.003 µM in experiment [2].

Take `C[C@@H]1CN(C(=O)c2cccc(Nc3ncc4ccn(-c5cc(F)c(CN6CCOCC6)c(F)c5)c4n3)c2)C[C@H](C)N1` [Example 455, {3-[7-(3,5-Difluoro-4-morpholin-4-ylmethyl-phenyl)-7H-pyrrolo[2,3-d]pyrimidin-2-ylamino]-phenyl}-(cis-3,5-dimethyl-piperazin-1-yl)-methanone]: the IC50 in experiment [1] came to 0.038 µM; in experiment [2], 0.0043 µM.

Take `Fc1cc(-n2ccc3cnc(Nc4ccnc(N5CCNC(C(F)(F)F)C5)c4)nc32)cc(F)c1CN1CCOCC1` (racemic) [Example 364, [7-(3,5-Difluoro-4-morpholin-4-ylmethyl-phenyl)-7H-pyrrolo[2,3-d]pyrimidin-2-yl]-[2-(3-trifluoromethyl-piperazin-1-yl)-pyridin-4-yl]-amine]: the values for the half-maximal inhibitory concentration (IC50) in experiment [1] and in experiment [2] were 0.0028 µM and at most 0.003 µM, respectively.

Take `Cc1cc(Nc2ncc3ccn(-c4cc(F)c(CN5CCOCC5)c(F)c4)c3n2)ccc1[C@H]1CCCN1` [Example 346, [7-(3,5-Difluoro-4-morpholin-4-ylmethyl-phenyl)-7H-pyrrolo[2,3-d]pyrimidin-2-yl]-((R)-3-methyl-4-pyrrolidin-2-yl-phenyl)-amine]: the 50% inhibitory concentration (IC50) was 0.0028 µM in experiment [1] and at most 0.003 µM in experiment [2].

`CN1CCN(C(=O)c2ccc(Nc3ncc4ccn(-c5cc(F)c(CN6CCOCC6)c(F)c5)c4n3)cn2)CC1` [Example 466, {5-[7-(3,5-Difluoro-4-morpholin-4-ylmethyl-phenyl)-7H-pyrrolo[2,3-d]pyrimidin-2-ylamino]-pyridin-2-yl}-(4-methyl-piperazin-1-yl)-methanone]: the IC50 was 0.056 µM in experiment [1] and 0.0079 µM in experiment [2].

Take `CN(C)C1CCN(Cc2cc(Nc3ncc4ccn(-c5cc(F)c(CN6CCOCC6)c(F)c5)c4n3)ccn2)C1` (racemic) [Example 427, [7-(3,5-Difluoro-4-morpholin-4-ylmethyl-phenyl)-7H-pyrrolo[2,3-d]pyrimidin-2-yl]-[2-(3-dimethylamino-pyrrolidin-1-ylmethyl)-pyridin-4-yl]-amine]: the IC50 in experiment [1] is 0.0332 µM; in experiment [2], at most 0.003 µM.

In the case of `CC1(C)CN(Cc2ccc(Nc3ncc4ccn(-c5cc(F)c(CN6CCOCC6)c(F)c5)c4n3)cc2)CCN1` [Example 473, [7-(3,5-Difluoro-4-morpholin-4-ylmethyl-phenyl)-7H-pyrrolo[2,3-d]pyrimidin-2-yl]-[4-(3,3-dimethyl-piperazin-1-ylmethyl)-phenyl]-amine], the half-maximal inhibitory concentration (IC50) is 0.0123 µM in experiment [1] and at most 0.003 µM in experiment [2].

Take `Cc1cc(Nc2ncc3ccn(-c4cc(F)c(CN5CCOCC5)c(F)c4)c3n2)cnc1N1CCNC(C)(C)C1` [Example 488, [7-(3,5-Difluoro-4-morpholin-4-ylmethyl-phenyl)-7H-pyrrolo[2,3-d]pyrimidin-2-yl]-[6-(dimethyl-piperazin-1-yl)-5-methyl-pyridin-3-yl]-amine]: the results for the IC50 in experiment [1] and in experiment [2] were 0.0405 µM and at most 0.003 µM, respectively.

In the case of `Fc1cc(-n2ccc3cnc(Nc4ccnc(N5CCN(C6CC6)CC5)c4)nc32)cc(F)c1CN1CCOCC1` [Example 456, [2-(4-Cyclopropyl-piperazin-1-yl)-pyridin-4-yl]-[7-(3,5-difluoro-4-morpolin-4-ylmethyl-phenyl)-7H-pyrrolo[2,3-d]pyrimidin-2-yl]-amine], the 50% inhibitory concentration (IC50) in experiment [1] was 0.0019 µM; in experiment [2], at most 0.003 µM.

On to `C[C@@H]1CN(Cc2ccc(Nc3ncc4ccn(-c5cc(F)c(CN6CCOCC6)c(F)c5)c4n3)c(F)c2)C[C@H](C)N1` [Example 477, [7-(3,5-Difluoro-4-morpholin-4-ylmethyl-phenyl)-7H-pyrrolo[2,3-d]pyrimidin-2-yl]-[4-(cis-3,5-dimethyl-piperazin-1-ylmethyl)-2-fluoro-phenyl]-amine], for which the IC50 in experiment [1] is 0.718 µM; in experiment [2], 0.017 µM.

Take `O=C1CNCCN1c1ccc(Nc2ncc3ccn(-c4cc(F)c(CN5CCOCC5)c(F)c4)c3n2)cn1` [Example 470, 1-{5-[7-(3,5-Difluoro-4-morpholin-4-ylmethyl-phenyl)-7H-pyrrolo[2,3-d]pyrimidin-2-ylamino]-pyridin-2-yl}-piperazin-2-one]: the concentration for half-maximal inhibition (IC50) in experiment [1] was found to be 0.017 µM; in experiment [2], 0.061 µM.

With `C[C@@H]1CN(c2ccc(Nc3ncc4ccn(-c5ccc(S(N)(=O)=O)cc5)c4n3)cn2)C[C@H](C)N1` [Example 369, 4-{2-[6-(cis-3,5-Dimethyl-piperazin-1-yl)-pyridin-3-ylamino]-pyrrolo[2,3-d]pyrimidin-7-yl}-benzenesulfonamide], the IC50 in experiment [1] is 0.057 µM; in experiment [2] it was at most 0.003 µM.

For `Cc1ccc(Nc2ncc3ccn(-c4cc(F)c(CN5CCOCC5=O)c(F)c4)c3n2)cc1CN1CCNCC1` [Example 485, 4-{2,6-Difluoro-4-[2-(4-methyl-3-piperazin-1-ylmethyl-phenylamino)-pyrrolo[2,3-d]pyrimidin-7-yl}-benzyl]-morpholin-3-one], the IC50 is 0.11 µM in experiment [1] and at most 0.003 µM in experiment [2].

In the case of `Fc1cc(-n2ccc3cnc(Nc4ccnc(OC5CCOCC5)c4)nc32)cc(F)c1CN1CCOCC1` [Example 350, [7-(3,5-Difluoro-4-morpholin-4-ylmethyl-phenyl)-7H-pyrrolo[2,3-d]pyrimidin-2-yl]-[2-(tetrahydro-pyran-4-yloxy)-pyridin-4-yl]-amine], the 50% inhibitory concentration (IC50) in experiment [1] was 0.0218 µM; in experiment [2], at most 0.003 µM.

As for `Cc1ccc(Nc2ncc3ccn(-c4cc(F)c(CN5CCOCC5)c(F)c4)c3n2)cc1CN1CCN(C)CC1` [Example 331, [7-(3,5-Difluoro-4-morpholin-4-ylmethyl-phenyl)-7H-pyrrolo[2,3-d]pyrimidin-2-yl]-[4-methyl-3-(4-methyl-piperazin-1-ylmethyl)-phenyl]-amine], the IC50 was 0.0028 µM in experiment [1] and at most 0.003 µM in experiment [2].

For `Fc1cc(-n2ccc3cnc(Nc4ccc(CN5CCNC(C(F)(F)F)C5)cc4)nc32)cc(F)c1CN1CCOCC1` (racemic) [Example 476, [7-(3,5-Difluoro-4-morpholin-4-ylmethyl-phenyl)-7H-pyrrolo[2,3-d]pyrimidin-2-yl]-[4-(3-trifluoromethyl-piperazin-1-ylmethyl)-phenyl]-amine], the values for the IC50 in experiment [1] and in experiment [2] were 0.0345 µM and at most 0.003 µM, respectively.

Values taken from patent US8420657B2 (Novartis AG, priority 2008, dated 2013).
